# Source: patent US20130281512A1, “AGENTS FOR TREATING DISORDERS INVOLVING MODULATION OF RYANODINE RECEPTORS” (LES LABORATOIRES SERVIER, priority 2012, published 2013)
# Where two headings read alike, the source gives them in different places.
# Legend:
# [1] = test system: mdx mice; experiment: Muscle function in mouse muscular dystrophy model (mdx): voluntary wheel activity, EDL specific force; assay type: in vivo
# Method: Voluntary activity on wheel, body weight, and average water consumption were measured in the first 3 weeks. Specific muscle force was measured after 4 weeks of treatment, at the end of the study.
# (§1) Distance traveled (Km/day) over a 24 hr period was analyzed as an index of improved functional activity (see, DMD_M.2.1.002 SOP at http://www.treat-nmd.eu/). At the conclusion of the study, Extensor digitorum longus (EDL) muscle was isolated for muscle force analysis as further described hereinbelow. Blood was collected from each mouse by retro-orbital bleeds at the end of the study (after end of dark cycle—about 7 AM) to assess drug plasma concentrations. Experiments were blinded.
# At the end of the study, EDL muscle was dissected from hind limbs for isometric force analysis using the 407A Muscle Test System from Aurora Scientific (Aurora, Ontario, Canada). A 6-0 suture were tied to each tendon and the entire EDL muscle, tendon to tendon, was transferred to a Ragnoti bath of O2/CO2 (95%/5%) bubbled Tyrode solution (in mM: NaCl 121, KCl 5.0, CaCl2 1.8, MgCl2, NaH2PO4, NaHCO3 24, and glucose 5.5). Using the sutures, one tendon was tied vertically to a stainless steel hook connected to a force transducer The other sutured tendon was clamped down into a moving arm on the Aurora system. The EDL muscle was stimulated to contract using an electrical field between two platinum electrodes. At the start of each experiment, muscle length was adjusted to yield the maximum force. Force-frequency relationships were determined by triggering contraction using incremental stimulation frequencies (5-250 Hz for 200 ms at suprathreshold voltage). Between stimulations the muscle was allowed to rest ˜3 min. At the end of the force measurement, the length (Lo) of the EDL muscle while sutured in the Aurora system was measured excluding the tendons. The EDL muscle was then removed from the system and weighed after clipping the end tendons and sutures off. The EDL muscle was then frozen in liquid nitrogen. The cross-sectional area (mm^2) of the EDL muscle was calculated by dividing the EDL muscle weight by the EDL muscle length and the mammalian muscle density constant of […] (Yamada, T., et al. Arthritis and rheumatism 60:3280-3289). To determine EDL specific force (kN/m^2), the absolute tetanic force was divided by the EDL muscle cross-sectional area.
# For statistical analysis of distance traveled, change from baseline was calculated for each day by subtracting the baseline value (defined as the mean of the two measurements obtained on Day −1 and Day −2) from each post dose assessment. Change from baseline was then statistically analyzed with a repeated measures analysis of variance model with fixed effects for treatment, day and treatment by day interaction. Baseline was included as a covariate and mouse was included as a random effect. The most appropriate covariance structure was determined through investigation of the Akaike's Information Criterion (AIC) and Bayesian Information Criterion (BIC). The covariance structures investigated were autoregressive, compound symmetry, unstructured, and toeplitz. The optimal covariance structure selected was compound symmetry. From the model, point estimates and associated 95% confidence intervals (CI) for the difference in change from baseline between each ARM210 treated mice group and vehicle treated group (for both mdx and C57BL/6 mice) were obtained for each day, each week, and the entire assessment period from Day 1 to Day 19. As this study is exploratory in nature, no adjustments in multiple comparisons were made.
# Specific force was analyzed using a repeated measures analysis of variance model with fixed effects for treatment, frequency and treatment by frequency interaction and mouse as a random effect. Similar to the analysis described above, the optimal covariance structure was chosen from among autoregressive, compound symmetry, unstructured, and toeplitz. […]
# [2] = Morning blood exposure (drug plasma concentrations) in mdx and WT mice; assay type: in vivo; conditions: mouse, oral, read-out: Morning blood exposure (average±SEM)
# Method: as §1
# [3] = Metabolic stability in rat microsomes (% remaining); assay type: in vitro ADME
# Method: 0.1M Tris HCl buffer at pH 7.4 containing 5 mM EDTA.
# To a 50 mL falcon tube containing 2.79 mL of dilution buffer were added 0.429 mL of NADPH-regenerating soln. A and 0.079 mL of NADPH-regenerating soln. B […]
# […] A 50 mL falcon tube containing 3.32 mL of dilution buffer was prewarmed at 37° C. for 15 min. (at least 10 min.) 0.178 mL of microsome (24.6 mg/mL) were added to the prewarmed dilution buffer. The protein concentration of this microsome preparation was 1.25 mg/mL.
# Sample (Test Compound)—Original and Intermediate Stock Solutions:
# 100 μM intermediate solution of the test compound from the original stock solution were prepared using the dilution buffer. A 5 μM solution was prepared by diluting the 100 μM intermediate solution using dilution buffer.
# (The experiments were conducted in 1.5 mL eppendorf micro centrifuge tubes) 0 minutes incubation. Procedure: a. Add 100 μL of prewarmed microsomes b. Add 50 μL of 5 μM solution of the test compound. c. Add 500 μL of cold stop solution (ice cold Methanol) d. Add 100 μL of NADPH cofactor solution to the eppendorf. a. Vortex mix the eppendorf. […]
# b. Add 100 μL of NADPH cofactor solution to the eppendorf. c. Add 50 μL of 5 μM solution of the test compound. d. Add 100 μL of prewarmed microsomes e. Incubate the eppendorf at 37° C. 300 rpm for ‘t’ min. on a thermomixer. f. Remove the eppendorf from thermomixer g. Add 500 μL of cold stop solution (ice cold Methanol) h. Vortex mix the eppendorf.
# Both the ‘0’ and ‘t’ minutes incubated samples were centrifuged at 15, 000 rcf at 4° C. for 15 min. 500 μL of the supernatant solution was removed and subject it to LC/MS analysis (SIM—Selected Ion Monitoring) […]
# Results are expressed as % test compound remaining=(MS Area response of T min sample/MS Area response of ‘0’ min sample)*100. The MS area used is an average of duplicate injections.
# Time points=0, 15, 30 and 60 min. for each test compound
# 2 μM Imipramine—5 min. and 2 μM Imipramine—15 min. incubation was used as a positive control for the rat and mouse liver microsome stability experiments.
# [4] = mdx and WT mice, drinking water
structure (smiles),measurement,setting,value
"COc1ccc2c(c1)CN(Cc1ccc(C(=O)O)cc1)CCS2 [Compound 1, 4-((7-Methoxy-2,3-dihydrobenzo[f][1,4]thiazepin-4(5H)-yl)methyl)benzoic acid]",body weight,[1]; [4],did not affect
same,water consumption,[1]; [4],No dose-dependent effects
same,specific muscle force (EDL),"[1]; mdx mice, 50 mg/kg/d, stimulation frequencies of 150 Hz and above, P<0.05",statistically significant increase
same,specific force of EDL muscle,"[1]; mdx mice, 5, 10 and 50 mg/kg/d, 4 weeks",increased specific force in mdx muscle dose-dependently
same,distance traveled on voluntary wheel,"[1]; mdx mice, 10 and 50 mg/kg/d (target dose) sodium salt in drinking water, day 1 to day 19, vs vehicle, P<0.001",significantly longer distances
same,time to treatment effect on wheel activity after treatment initiation,"[1]; mdx mice, drinking water",2 to 3 days
same,concentration at 4 weeks,"[2]; C57BL/6 (WT), 50 mg/kg/d-dosed WT mice",72.8 ± 7 µM
same,concentration at 4 weeks,"[2]; C57BL/10ScSn-DMD^mdx/J (mdx), 5 mg/kg/d-dosed mdx mice",3.3 ± 0.4 µM
same,concentration at 4 weeks,"[2]; C57BL/10ScSn-DMD^mdx/J (mdx), 10 mg/kg/d-dosed mdx mice",10.7 ± 0.9 µM
same,concentration at 4 weeks,"[2]; C57BL/10ScSn-DMD^mdx/J (mdx), 50 mg/kg/d-dosed mdx mice",52.8 ± 1.7 µM
same,% remaining,[3]; 15 min,54%
same,% remaining,[3]; 30 min,17%
same,% remaining,[3]; 1 h,2%
